One series deals with male mice. Format: in vivo. From the text:
(§1) 2. Prolongation of the cerebral survival time in the case of hypoxaemia caused by sub-atmospheric pressure.
(§2) This neuropathological behaviour is induced in male mice by a progressive reduction of the pressure to 26.66 kPa in an observation chamber and is used as an indicator of the cerebral hypoxia period. It ends in the death of the experimental animal.

The nature of series [1]: Tranquillising properties. To be noted: in words. It counts as in vivo.
A further series deals with mice. Put plainly: LD50 / toxicity and toleration. It counts as in vivo. To be noted: in words.
A short description of series [2]: LD50 / toxicity and toleration. It counts as in vivo, mice. As to conditions: mouse, in vivo, mice.
A short description of series [3]: Cerebral protection / vaso-active and metabolism-regulating properties (overall). As to conditions: in words. Format: in vivo, mice. The protocol: The following methods have been used to investigate the pharmacodynamic properties of the compounds according to the invention:
1. Prolongation of cerebral survival time under hypoxaemia caused by NaNO2.
Starting from the results of Gibson and Blass (J. Neurochemistry 27, 1976), a cerebral hypoxia is produced in male mice by means of NaNO2 (225 mg/kg, subcutaneous). The cerebral hypoxia period is marked by a characteristic spasmodic behaviour and ends in the death of the experimental animals.
as §1, §2
3. Protection against amnesia induced by electric shock.
Starting from the results of Taber and Banuazizi (Psychopharmakologia 9, 1966), male mice are taught not to enter a certain compartment of the cage in order to avoid an electric shock. The response is extinguished by means of an electric shock administered via head electrodes (electric shock amnesia).

For the next series, the system named is thrombocytes. Put plainly: Inhibition of aggregation of thrombocytes. To be noted: in words.

Structures are written as SMILES. Entries after “also recorded” stand apart in the source; their conditions may differ. Like-named read-outs stand apart in the source and are kept apart here.

For `C(=C\c1ccccc1)/CN1CCN(C(c2ccccc2)c2ccccc2)CC1` [Cinnarizine, cinnarizine], in the series on male mice (po), the Sub-atmospheric pressure hypoxaemia entry is recorded as “-”.
For the compound `Cc1cccc(C)c1NC(=O)CN1CCCC1=O` [Example 6, 2-Oxo-1-pyrrolidinylacetic acid, 2,6-dimethylanilide], the Sub-atmospheric pressure hypoxaemia result with male mice (po) is listed as “+”. Further, in series [1], the tranquillising properties result is given as “good tranquillising properties”. Moreover, in the series on mice, the toleration result is listed as “well tolerated; also recorded: good toleration”. The toxicity entry in the series on mice was “very low toxicity”. Moreover, the 50% lethal dose (LD50) in series [2] (iv, administered intravenously) amounted to 421 mg/kg; in series [2] (po, administered orally) it was 1770 mg/kg. The “activity / effectiveness (vaso-active, metabolism-regulating, cerebral protection)” value is “highly active; also recorded: excellent activity” in series [3] and “particularly effective” in series [3] (listed as 2-Oxo-1-pyrrolidinylacetic acid-2,6-dimethylanilide). For the same compound, in the series on thrombocytes, the “effect of inhibiting aggregation of thrombocytes” value is “inhibiting aggregation of thrombocytes”.
`CN(C)CCOC(=O)COc1ccc(Cl)cc1` [Meclofenoxate, meclofenoxate]: the Sub-atmospheric pressure hypoxaemia result with male mice (po) was “-”.
Regarding `O=C(CN1CCCC1=O)Nc1ccccc1` [PA, 2-oxo-1-pyrrolidinylacetic acid anilide, reference compound], in the series with male mice (po), the Sub-atmospheric pressure hypoxaemia result was “-”. The “activity / effectiveness (vaso-active, metabolism-regulating, cerebral protection)” value in series [3] is “exhibits none of these effects”.
On to `COc1ccc(Cc2nccc3cc(OC)c(OC)cc23)cc1OC` [Papaverine, papaverine], for which, in the series with male mice (iv), the Sub-atmospheric pressure hypoxaemia entry was “-”.
As to `NC(=O)CN1CCCC1=O` [Piracetam, piracetam], the Sub-atmospheric pressure hypoxaemia result with male mice (po) is “+”.
With `CC(C)NCC(O)COc1cccc2ccccc12` (stereo not drawn) [Propranol, propranolol], the Sub-atmospheric pressure hypoxaemia result in the series with male mice (po) is “-”.
The same measure, in the same setting: under `Cc1ncc(CSSCc2cnc(C)c(O)c2CO)c(CO)c1O` [Pyritinol, pyritinol] stands “-”.
The same measure, in the same setting: for `CC[C@]12CCCN3CCc4c(n(c5ccccc45)[C@@](O)(C(=O)OC)C1)[C@@H]32` [Vincamine, vincamine] the value was “+”.

The record behind these values is patent US4341790A, “Pyrrolidinylalkylcarboxylic acid amide derivatives, their preparation and pharmaceutical compositions containing them” (A. Nattermann & Cie. GmbH, priority 1979, dated 1982).
